PubChem BioAssay (NCI)
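In this assay, cells in 96-well plates receive the compound at five concentrations for 48 hours. Endpoints are linearly interpolated between the surrounding concentrations. The concentration for full growth arrest is given as TGI.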

Assays:
Experiment in all cases: NCI anticancer screen, dose series, 48 h
RXF-631 renal = tested on: RXF-631 renal
KM20L2 colon = tested on: KM20L2 colon
RXF 393 renal = tested on: RXF 393 renal
NCI-H522 lung = tested on: NCI-H522 lung
SNB-78 CNS = tested on: SNB-78 CNS
SF-295 CNS = tested on: SF-295 CNS
MALME-3M melanoma = tested on: MALME-3M melanoma
RPMI-8226 leukemia = tested on: RPMI-8226 leukemia
SR leukemia = tested on: SR leukemia
OVCAR-5 ovarian = tested on: OVCAR-5 ovarian
SK-MEL-5 melanoma = tested on: SK-MEL-5 melanoma
HT29 colon = tested on: HT29 colon
A498 renal = tested on: A498 renal
SF-268 CNS = tested on: SF-268 CNS
XF 498 CNS = tested on: XF 498 CNS
KM12 colon = tested on: KM12 colon
SN12C renal = tested on: SN12C renal
UO-31 renal = tested on: UO-31 renal
786-0 renal = tested on: 786-0 renal
CCRF-CEM leukemia = tested on: CCRF-CEM leukemia
DMS 273 small cell lung = tested on: DMS 273 small cell lung
K-562 leukemia = tested on: K-562 leukemia
MOLT-4 leukemia = tested on: MOLT-4 leukemia
SW-620 colon = tested on: SW-620 colon
SK-MEL-28 melanoma = tested on: SK-MEL-28 melanoma
UACC-62 melanoma = tested on: UACC-62 melanoma
CAKI-1 renal = tested on: CAKI-1 renal
SNB-19 CNS = tested on: SNB-19 CNS
EKVX NSCLC = tested on: EKVX NSCLC
SK-OV-3 ovarian = tested on: SK-OV-3 ovarian
NCI-H23 lung = tested on: NCI-H23 lung
U251 CNS = tested on: U251 CNS
HOP-18 NSCLC = tested on: HOP-18 NSCLC
HOP-62 NSCLC = tested on: HOP-62 NSCLC
LOX IMVI melanoma = tested on: LOX IMVI melanoma
HCC-2998 colon = tested on: HCC-2998 colon
COLO 205 colon = tested on: COLO 205 colon
LXFL 529 NSCLC = tested on: LXFL 529 NSCLC
IGROV1 ovarian = tested on: IGROV1 ovarian
M14 melanoma = tested on: M14 melanoma
DLD-1 colon = tested on: DLD-1 colon
UACC-257 melanoma = tested on: UACC-257 melanoma
NCI-H460 lung = tested on: NCI-H460 lung
A549 NSCLC = tested on: A549 NSCLC
OVCAR-8 ovarian = tested on: OVCAR-8 ovarian
HOP-92 NSCLC = tested on: HOP-92 NSCLC
SF-539 CNS = tested on: SF-539 CNS
HCT-15 colon = tested on: HCT-15 colon
SK-MEL-2 melanoma = tested on: SK-MEL-2 melanoma
TK-10 renal = tested on: TK-10 renal
HL-60(TB) leukemia = tested on: HL-60(TB) leukemia
NCI-H226 lung = tested on: NCI-H226 lung
ACHN renal = tested on: ACHN renal
SNB-75 CNS = tested on: SNB-75 CNS
OVCAR-3 ovarian = tested on: OVCAR-3 ovarian
OVCAR-4 ovarian = tested on: OVCAR-4 ovarian
HCT-116 colon = tested on: HCT-116 colon
M19-MEL melanoma = tested on: M19-MEL melanoma
DMS 114 small cell lung = tested on: DMS 114 small cell lung

## O=[N+]([O-])C1C2C=CC(C2)[C@H]1c1ccccc1Cl (stereo partly specified)
RXF-631 renal
  TGI: > 100 µM
KM20L2 colon
  TGI: > 100 µM
RXF 393 renal
  TGI: > 100 µM
NCI-H522 lung
  TGI: > 31.6 µM
SNB-78 CNS
  TGI: > 100 µM
SF-295 CNS
  TGI: > 100 µM
MALME-3M melanoma
  TGI: > 100 µM
RPMI-8226 leukemia
  TGI: > 100 µM
SR leukemia
  TGI: > 100 µM
OVCAR-5 ovarian
  TGI: > 88.2 µM
SK-MEL-5 melanoma
  TGI: > 100 µM
HT29 colon
  TGI: > 100 µM
A498 renal
  TGI: > 100 µM
SF-268 CNS
  TGI: > 100 µM
XF 498 CNS
  TGI: > 100 µM
KM12 colon
  TGI: > 100 µM
SN12C renal
  TGI: > 100 µM
UO-31 renal
  TGI: 97.7 µM
786-0 renal
  TGI: > 100 µM
CCRF-CEM leukemia
  TGI: > 100 µM
DMS 273 small cell lung
  TGI: > 100 µM
K-562 leukemia
  TGI: > 100 µM
MOLT-4 leukemia
  TGI: > 100 µM
SW-620 colon
  TGI: > 100 µM
SK-MEL-28 melanoma
  TGI: > 100 µM
UACC-62 melanoma
  TGI: > 31.6 µM
CAKI-1 renal
  TGI: > 10 µM
SNB-19 CNS
  TGI: > 100 µM
EKVX NSCLC
  TGI: > 100 µM
SK-OV-3 ovarian
  TGI: > 31.6 µM
NCI-H23 lung
  TGI: > 100 µM
U251 CNS
  TGI: > 100 µM
HOP-18 NSCLC
  TGI: > 100 µM
HOP-62 NSCLC
  TGI: > 10 µM
LOX IMVI melanoma
  TGI: > 100 µM
HCC-2998 colon
  TGI: > 100 µM
COLO 205 colon
  TGI: > 100 µM
LXFL 529 NSCLC
  TGI: > 100 µM
IGROV1 ovarian
  TGI: > 31.6 µM
M14 melanoma
  TGI: > 100 µM
DLD-1 colon
  TGI: > 100 µM
UACC-257 melanoma
  TGI: > 100 µM
NCI-H460 lung
  TGI: > 100 µM
A549 NSCLC
  TGI: > 100 µM
OVCAR-8 ovarian
  TGI: > 100 µM
HOP-92 NSCLC
  TGI: > 75.6 µM
SF-539 CNS
  TGI: > 100 µM
HCT-15 colon
  TGI: > 100 µM
SK-MEL-2 melanoma
  TGI: > 100 µM
TK-10 renal
  TGI: > 100 µM
HL-60(TB) leukemia
  TGI: > 92.5 µM
NCI-H226 lung
  TGI: 92.2 µM
ACHN renal
  TGI: > 100 µM
SNB-75 CNS
  TGI: 60.7 µM
OVCAR-3 ovarian
  TGI: > 31.6 µM
OVCAR-4 ovarian
  TGI: > 10 µM
HCT-116 colon
  TGI: > 100 µM

## COC[n+]1cc2cc(OC)c(OC)cc2c2ccc3cc(OC)c(OC)cc3c21
RXF-631 renal
  TGI: > 100 µM
KM20L2 colon
  TGI: > 100 µM
RXF 393 renal
  TGI: > 100 µM
NCI-H522 lung
  TGI: > 100 µM
SNB-78 CNS
  TGI: > 100 µM
M19-MEL melanoma
  TGI: > 100 µM
SF-295 CNS
  TGI: > 100 µM
MALME-3M melanoma
  TGI: > 100 µM
RPMI-8226 leukemia
  TGI: > 100 µM
OVCAR-5 ovarian
  TGI: > 100 µM
SK-MEL-5 melanoma
  TGI: > 100 µM
HT29 colon
  TGI: > 100 µM
SF-268 CNS
  TGI: > 100 µM
KM12 colon
  TGI: > 100 µM
SN12C renal
  TGI: > 100 µM
UO-31 renal
  TGI: > 100 µM
786-0 renal
  TGI: > 100 µM
CCRF-CEM leukemia
  TGI: > 100 µM
K-562 leukemia
  TGI: > 100 µM
DMS 114 small cell lung
  TGI: > 100 µM
MOLT-4 leukemia
  TGI: > 100 µM
SW-620 colon
  TGI: > 100 µM
SK-MEL-28 melanoma
  TGI: > 100 µM
UACC-62 melanoma
  TGI: > 100 µM
CAKI-1 renal
  TGI: > 100 µM
SNB-19 CNS
  TGI: > 100 µM
EKVX NSCLC
  TGI: > 100 µM
NCI-H23 lung
  TGI: > 100 µM
U251 CNS
  TGI: > 100 µM
HOP-18 NSCLC
  TGI: > 100 µM
HOP-62 NSCLC
  TGI: > 100 µM
LOX IMVI melanoma
  TGI: > 100 µM
HCC-2998 colon
  TGI: > 100 µM
COLO 205 colon
  TGI: > 100 µM
LXFL 529 NSCLC
  TGI: > 100 µM
IGROV1 ovarian
  TGI: > 100 µM
M14 melanoma
  TGI: > 100 µM
DLD-1 colon
  TGI: > 100 µM
UACC-257 melanoma
  TGI: > 100 µM
NCI-H460 lung
  TGI: > 100 µM
A549 NSCLC
  TGI: > 100 µM
OVCAR-8 ovarian
  TGI: > 100 µM
HOP-92 NSCLC
  TGI: > 100 µM
SF-539 CNS
  TGI: > 100 µM
HCT-15 colon
  TGI: > 100 µM
SK-MEL-2 melanoma
  TGI: > 100 µM
TK-10 renal
  TGI: > 100 µM
HL-60(TB) leukemia
  TGI: > 100 µM
NCI-H226 lung
  TGI: > 100 µM
ACHN renal
  TGI: > 100 µM
SNB-75 CNS
  TGI: > 100 µM
OVCAR-3 ovarian
  TGI: > 100 µM
OVCAR-4 ovarian
  TGI: > 100 µM
HCT-116 colon
  TGI: > 100 µM
